Results on 26 molecules are retold here after patent USRE39197E1, “Cell adhesion-inhibiting antiinflammatory and immune-suppressive compounds” (Abbott Laboratories, priority 1998, dated 2006).

Molecules are shown by their SMILES.

The subject of test [1] is adherence of JY-8 cells (expressing LFA-1) to immobilized ICAM-1. The test can be described thus: ICAM-1/JY-8 Cell Adhesion Assay. Type of test: cell-based, human. On the procedure: ICAM-1/JT-8 Cell Adhesion Assay
For measurment measurement of inhibotory inhibitory activity in the cell-based adhesion assay, 96-well microtiter plates are were coated with 70 μL of recombinat recombinant ICAM-1/Ig (ICOS Corporation) at a concentration of 5 μg/mL in D-PBS w/o without Ca^++ or Mg++ or Mg^++ overnight at 4° C. The wells are were then washed twice with D-PBS and blocked by addition of 200 μL of D-PBS, 5% fish skin gelatin by incubation for 1 hour at room temperature. […] The percent inhibition of a candidate compound at a given concentration is was calculated using the following equation: [formula] and these concentration/inhibition data are were used to generate does response curves, from which IC50 values are were derived.

For test [2], the target named is T1, interaction between the integrin LFA-1 and its adhesion partner ICAM-1 (Homo sapiens, UniProt P20701).
T1 construct: Recombinant LFA-1 (100 μL of 0.7 μg/ml mL, ICOS Corporation) in D-PBS; purchased ICOS Corporation
T1 sequence (P20701 26-1170): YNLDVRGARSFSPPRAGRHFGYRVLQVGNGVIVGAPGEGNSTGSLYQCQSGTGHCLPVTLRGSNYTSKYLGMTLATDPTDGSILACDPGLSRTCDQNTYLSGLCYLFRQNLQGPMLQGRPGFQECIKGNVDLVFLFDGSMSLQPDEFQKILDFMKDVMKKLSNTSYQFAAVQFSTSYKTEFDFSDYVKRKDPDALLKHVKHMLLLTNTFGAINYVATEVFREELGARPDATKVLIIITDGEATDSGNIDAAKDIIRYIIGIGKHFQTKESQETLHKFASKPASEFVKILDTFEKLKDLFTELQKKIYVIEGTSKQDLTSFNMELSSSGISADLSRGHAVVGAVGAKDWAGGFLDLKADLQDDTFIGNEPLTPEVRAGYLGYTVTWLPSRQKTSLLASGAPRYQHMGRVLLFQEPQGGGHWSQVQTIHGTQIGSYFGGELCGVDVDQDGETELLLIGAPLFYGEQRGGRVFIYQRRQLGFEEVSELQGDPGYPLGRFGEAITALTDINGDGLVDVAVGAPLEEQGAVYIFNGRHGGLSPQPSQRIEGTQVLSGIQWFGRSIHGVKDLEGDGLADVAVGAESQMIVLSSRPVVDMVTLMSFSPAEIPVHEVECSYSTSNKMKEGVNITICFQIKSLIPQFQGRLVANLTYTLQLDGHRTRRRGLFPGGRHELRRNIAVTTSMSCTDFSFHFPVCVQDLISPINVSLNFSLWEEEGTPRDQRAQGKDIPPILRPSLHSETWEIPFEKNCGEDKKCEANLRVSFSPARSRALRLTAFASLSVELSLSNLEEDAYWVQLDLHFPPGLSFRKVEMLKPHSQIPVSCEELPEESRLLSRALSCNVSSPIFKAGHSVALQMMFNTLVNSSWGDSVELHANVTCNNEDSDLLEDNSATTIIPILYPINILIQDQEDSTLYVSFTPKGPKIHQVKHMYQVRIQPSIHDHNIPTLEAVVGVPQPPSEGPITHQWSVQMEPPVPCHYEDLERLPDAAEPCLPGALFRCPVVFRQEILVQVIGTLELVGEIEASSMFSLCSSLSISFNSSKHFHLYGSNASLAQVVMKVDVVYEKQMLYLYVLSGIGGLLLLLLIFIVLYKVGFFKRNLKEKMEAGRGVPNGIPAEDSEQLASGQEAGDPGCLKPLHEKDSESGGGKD
T1 sequence (P05107 23-769 partner): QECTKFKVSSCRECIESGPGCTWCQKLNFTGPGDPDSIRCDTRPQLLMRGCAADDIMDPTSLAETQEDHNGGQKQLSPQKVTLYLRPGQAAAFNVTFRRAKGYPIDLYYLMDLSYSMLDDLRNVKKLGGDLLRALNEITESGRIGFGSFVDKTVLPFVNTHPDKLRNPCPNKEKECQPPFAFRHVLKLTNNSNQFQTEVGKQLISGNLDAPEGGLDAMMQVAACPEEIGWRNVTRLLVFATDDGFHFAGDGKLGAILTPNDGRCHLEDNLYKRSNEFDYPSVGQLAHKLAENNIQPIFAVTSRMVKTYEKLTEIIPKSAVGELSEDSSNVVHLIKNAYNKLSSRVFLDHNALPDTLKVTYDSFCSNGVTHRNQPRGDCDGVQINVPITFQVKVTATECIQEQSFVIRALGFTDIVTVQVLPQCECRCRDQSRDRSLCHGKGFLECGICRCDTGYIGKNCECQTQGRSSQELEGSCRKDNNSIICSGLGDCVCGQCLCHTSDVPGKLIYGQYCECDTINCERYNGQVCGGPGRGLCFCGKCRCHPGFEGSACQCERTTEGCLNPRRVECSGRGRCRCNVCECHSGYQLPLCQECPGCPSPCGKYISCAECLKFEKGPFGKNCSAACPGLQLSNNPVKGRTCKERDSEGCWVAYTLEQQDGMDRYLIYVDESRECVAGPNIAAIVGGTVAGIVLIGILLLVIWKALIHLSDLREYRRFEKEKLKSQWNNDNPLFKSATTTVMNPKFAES
Briefly: ICAM-1/LFA-1 Biochemical Interaction Assay. As to conditions: 4 μM compound; recombinant LFA-1, biotinylated ICAM-1/Ig. Format: binding. On the procedure: Compounds that antagonize the interaction between ICAM-1 and LFA-1 can be identified, and their activities quantitated, using both biochemical and cell-based adhesion assays. A primary biochemical assay measures the ability of the compound in question to block the interaction between the integrin LFA-1 and its adhesion partner ICAM-1, as described below:
ICAM-1/LFA-1 Biochemical Interaction Assay
In the biochemical assay, 100 μL of anti-LFA-1 antibody (ICOS Corporation) at a concentration of 5 μg/ml mL in Dulbecco's phosphate-buffered saaline (D-PBS) is used to coat wells of a 96-well microtiter plate overnight at 4° C. The wells are were then washed twice with wash buffer (D-PBS w/o Ca^++ or Mg^++, 0.05% Tween 20) and blocked by addition of 200 μL of D-PBS, 5% fish skin gelatin. Recombinant LFA-1 (100 μL of 0.7 μg/ml mL, ICOS Corporation) in D-PBS is was then added to each well. Incubation continues continued for 1 hour at room temperature and the wells are were washed twice with wash buffer. Serial dilutions of compounds being assayed as ICAM-1/LFA-1 antagonists, were prepared as 10 mM stock solutions in dimethyl sulfoxide (DMSO), are were diluted in D-PBS, 2 mM MgCl2, 1% fish skin gelatin and 50 μL of each dilution was added to duplicate wells. This is was followed by the addition of 50 μL of 0.8 μg/ml mL biotinylated recombinant ICAM-1/Ig (ICOS Corporation) to the wells and the plates are were incubated at room temperature for 1 hour. The wells are were then washed twice with wash buffer and 100 μL of Europium-labeled Streptavidin (Wallac Oy) diluted 1:100 in Delfia assay buffer (Wallac Oy), are was then added to the wells. Incubation proceeds proceeded for 1 hour at room temperature. The wells are were washed eight times with wash buffer and 100 μL of enhancement solution (Wallac Oy, cat. No. 1244-105) are was added to each well. Incubation proceeds proceeded for 5 minutes with constant mixing. Time-resolved fluorimetry measurements are were made using the a Victor 1420 Multilabel Counter (Wallac Oy) and the percent inhibition of each candidate compound is was calculated using the following equation: [formula] where “background” refers to wells that are were not coated with anti-LFA-1 antibody.

[3] abbreviates: Homo sapiens, JY-8, JY-8 cells on immobilized ICAM-1/Ig.
The mark [4] stands for this setting: JY-8 cells on immobilized ICAM-1/Ig.

For orientation: IC50 means the concentration needed to halve the response being measured. A lower IC50 goes with higher potency. As usually defined, the inhibition is how much of the control response was suppressed. `O=C(/C=C/c1ccccc1Sc1ccc(Cl)cc1Cl)NCCCCCCO` [Example 1, (2,4-Dichlorophenyl)[2-(E-((6-hydroxyhexylamino)carbonyl)ethenyl)phenyl]sulfide] returned an IC50 in test [1] (setting [3]) of 2100 nM. Also, the inhibition at 4 µM in test [2] was found to be 75%. Molecule `O=C(/C=C/c1ccccc1Sc1ccc(Cl)cc1Cl)NCCCn1ccnc1` [Example 2, (2,4-Dichlorophenyl)[2-(E-((3-(1-imidazolyl)propylamino)carbonyl)ethenyl)phenyl]sulfide] came in with an IC50 in test [1] (setting [3]) of 13000 nM. Regarding `O=C(/C=C/c1ccc(Sc2ccc(Cl)cc2Cl)c(Cl)c1)NCCO` [Example 3, (2,4-Dichlorophenyl)[2-chloro-4-(E-((2-hydroxyethylamino)carbonyl)ethenyl)phenyl]sulfide], the IC50 in test [1] (setting [3]) came out at 2500 nM. For the same molecule, the inhibition at 4 µM in test [2] amounted to 75%. In turn, `O=C(/C=C/c1ccc(Sc2ccc(Cl)cc2Cl)c(Cl)c1)NCCCCCCO` [Example 4, (2,4-Dichlorophenyl)[2-chloro-4-(E-((6-hydroxyhexylamino)carbonyl)ethenyl)phenyl]sulfide] yielded a half-maximal inhibitory concentration (IC50) in test [1] (setting [3]) of 680 nM.

In turn, `O=C(/C=C/c1ccc(Sc2ccc(Cl)cc2Cl)c(Cl)c1)N(CCO)CCO` [Example 5, (2,4-Dichlorophenyl)[2-chloro-4-(E-((bis-(2-hydroxyethyl)amino)carbonyl)ethenyl)phenyl]sulfide] registered an IC50 in test [1] (setting [3]) of 2900 nM. In addition, the inhibition at 4 µM in test [2] stood at 73%. As to `O=C(/C=C/c1ccc(Sc2ccc(Cl)cc2Cl)c(Cl)c1)NCCCN1CCCC1=O` [Example 6, (2,4-Dichlorophenyl)[2-chloro-4-(E-((3-(2-oxopyrrolidin-1-yl)propylamino)carbonyl)ethenyl)phenyl]sulfide], the IC50 in test [1] (setting [3]) was 660 nM. For the same molecule, the inhibition at 4 µM in test [2] was 85%. In test [1] (setting [4]), `O=C(/C=C/c1ccc(Sc2ccc(Cl)cc2Cl)c(Cl)c1)N1CCOCC1` [Example 7, (2,4-Dichlorophenyl)[2-chloro-4-(E-((1-morpholinyl)carbonyl)ethenyl)phenyl]sulfide] came in with an IC50 of 1200 nM. The “% inhibition @ 4 μM” value in test [2] is recorded as 87%.

In turn, `CN1CCN(C(=O)/C=C/c2ccc(Sc3ccc(Cl)cc3Cl)c(Cl)c2)CC1` [Example 8, (2,4-Dichlorophenyl)[2-chloro-4-(E-((4-methylpiperazin-1-yl)carbonyl)ethenyl)phenyl]sulfide] gave a half-inhibitory concentration (IC50) in test [1] (setting [3]) of 2900 nM. Moreover, the inhibition at 4 µM in test [2] was 74%.

`O=C(/C=C/c1ccc(Sc2ccc(Cl)cc2Cl)c(Cl)c1)N1CCN(c2ccccn2)CC1` [Example 10, (2,4-Dichlorophenyl)[2-chloro-4-(E-((4-(2-pyridyl)piperazin-1-yl)carbonyl)ethenyl)phenyl]sulfide] yielded an IC50 in test [1] (setting [3]) of 1500 nM. As to `O=C(/C=C/c1ccc(Sc2ccccc2CO)c(Cl)c1)N1CCOCC1` [Example 11, (2-(Hydroxymethyl)phenyl)[2-chloro-4-(E-((1-morpholinyl)carbonyl)ethenyl)phenyl]sulfide], the half-maximal inhibitory concentration (IC50) in test [1] (setting [4]) is 260 nM. Besides, the “% inhibition @ 4 μM” value in test [2] is listed as 87%.

In test [1] (setting [4]), `O=C(/C=C/c1ccc(Sc2ccc(Cl)cc2Cl)c(Cl)c1)N1CCN(CCO)CC1` [Example 13] gave a half-maximal inhibitory concentration (IC50) of 1100 nM. The “% inhibition @ 4 μM” value in test [2] came to 79%.

`O=C(/C=C/c1ccc(Sc2ccc(Cl)cc2Cl)c(Cl)c1)N1CCN(CCOCCO)CC1` [Example 14] had a 50% inhibitory concentration (IC50) in test [1] (setting [4]) of 790 nM. For the same molecule, the “% inhibition @ 4 μM” value in test [2] came out at 82%. For `O=C(/C=C/c1ccc(Sc2ccccc2Br)c(Cl)c1)N1CCCCC1` [Example 19], in that order: 450 nM and 93%. Turning to `O=C(O)C1CCCN(C(=O)/C=C/c2ccc(Sc3ccc(Cl)cc3Cl)c(Cl)c2)C1` (centres unmarked) [Example 20, (2,4-Dichlorophenyl)[2-chloro-4-(E-((3-carboxypiperidin-1-yl)carbonyl)ethenyl)phenyl]sulfide], the IC50 in test [1] (setting [3]) stood at 3300 nM. Besides, the inhibition at 4 µM in test [2] was found to be 82%. The like results for `O=C(O)C1CCN(C(=O)/C=C/c2ccc(Sc3ccc(Cl)cc3Cl)c(Cl)c2)CC1` [Example 21, (2,4-Dichlorophenyl)[2-chloro-4-(E-((4-carboxypiperidin-1-yl)carbonyl)ethenyl)phenyl]sulfide] were, in that order, 520 nM and 80%.

Take `CC(=O)N1CCCN(C(=O)/C=C/c2ccc(Sc3ccccc3Br)c(Cl)c2)CC1` [Example 22, (2-Bromophenyl)[2-chloro-4-(E-((4-acetylhomopiperazin-1-yl)carbonyl)ethenyl)phenyl]sulfide]: in test [1] (setting [3]), the 50% inhibitory concentration (IC50) came to 200 nM. Also, in test [2], the inhibition at 4 µM was 90%. In test [1] (setting [4]), `O=C(/C=C/c1ccc(Sc2ccccc2Br)c(Cl)c1)N1CCC(n2c(=O)[nH]c3ccccc32)CC1` [Example 24] displayed an IC50 of 8000 nM. Also, the “% inhibition @ 4 μM” value in test [2] stood at 80%. With `O=C(/C=C/c1ccc(Sc2ccccc2Br)c(Cl)c1)N1CCc2ccccc2C1` [Example 25, (2-Bromophenyl)[2-chloro-4-(E-((2-tetrahydroisoquinolinyl)carbonyl)ethenyl)phenyl]sulfide], the IC50 in test [1] (setting [4]) stood at 11000 nM. Moreover, the “% inhibition @ 4 μM” value in test [2] is on record as 82%. In test [1] (setting [4]), `Cc1ccccc1Sc1ccc(/C=C/C(=O)NCCN2CCOCC2)cc1C(F)(F)F` [Example 28, (2-Methylphenyl)[2-trifluoromethyl-4-(E-((2-(1-morpholinyl)ethylamino)carbonyl)ethenyl)phenyl]sulfide] came in with a half-inhibitory concentration (IC50) of 370 nM. Further, the “% inhibition @ 4 μM” value in test [2] amounted to 87%. In test [1] (setting [3]), `Cc1ccccc1Sc1ccc(/C=C/C(=O)N2CCN(c3ccccc3)CC2)cc1C(F)(F)F` [Example 29, (2-Methylphenyl)[2-trifluoromethyl-4-(E-((4-phenylpiperazin-1-yl)carbonyl)ethenyl)phenyl]sulfide] had an IC50 of 160 nM. For the same molecule, in test [2], the inhibition at 4 µM is 84%. With `Cc1ccccc1Sc1ccc(/C=C/C(=O)NC2CC2)cc1C(F)(F)F` [Example 31, (2-Methylphenyl)[2-trifluoromethyl-4-(E-((cyclopropylamino)carbonyl)ethenyl)phenyl]sulfide], the inhibition at 4 µM in test [2] turned out to be 92%. Regarding `O=C(/C=C/c1ccc(Sc2ccc(Cl)cc2Cl)c([N+](=O)[O-])c1)NCCCN1CCCC1=O` [Example 33, (2,4-Dichlorophenyl)[2-nitro-4-(E-((3-(2-oxopyrrolidin-1-yl)propylamino)carbonyl)ethenyl)phenyl]sulfide], inhibition in test [1] (setting [3]) was half-maximal at 300 nM (IC50). `CC(=O)N1CCN(C(=O)/C=C/c2ccc(Sc3ccc(C)cc3)c([N+](=O)[O-])c2)CC1` [Example 36, (4-Methylphenyl)[2-nitro-4-(E-((4-acetylpiperazin-1-yl)carbonyl)ethenyl)phenyl]sulfide] gave a 50% inhibitory concentration (IC50) in test [1] (setting [3]) of 320 nM. Further, the inhibition at 4 µM in test [2] worked out at 90%. As to `O=C(/C=C/c1ccc(Sc2ccccc2CN2CCOCC2)c(Cl)c1)N1CCOCC1` [Example 53, (2-(1-Morpholinylmethyl)phenyl)[2-chloro-4-(E-((1-morpholinyl)carbonyl)ethenyl)phenyl]sulfide], the concentration for half-maximal inhibition (IC50) in test [1] (setting [4]) is 700 nM. Molecule `O=CN1CCN(Cc2ccccc2Sc2ccc(/C=C/C(=O)N3CCOCC3)cc2Cl)CC1` [Example 58, (2-(4-Formylpiperazin-1-ylmethyl)phenyl)[2-chloro-4-(E-((1-morpholinyl)carbonyl)ethenyl)phenyl]sulfide] showed a half-maximal inhibitory concentration (IC50) in test [1] (setting [4]) of 1600 nM. With `O=C(/C=C/c1ccc(Sc2ccc(Cl)cc2Cl)c(Br)c1)N1CCOCC1` [Example 64, (2,4-Dichlorophenyl)[2-bromo-4-(E-((1-morpholinyl)carbonyl)ethenyl)phenyl]sulfide], in test [2], the “% inhibition @ 4 μM” value came to 81%.
